Structures can show the parent of a compound that is named as a salt. Where two headings read alike, the source gives them in different places.
Columns and labels:
[1] = system: LPS-induced NO production in rat kidney mesangial cells (HBZY-1); assay: Total nitrite assay (Griess): inhibition of LPS-induced NO production in kidney mesangial cells; assay type: cell-based; details: for IC50: read-out: IC50 against LPS-induced NO production (total nitrite)
Description: (§1) Rat mesangial HBZY-1 cells were obtained from China Center for Type Culture Collection (Wuhan, China). Cells were maintained in high glucose DMEM medium (Invitrogen, USA) supplemented with 10% heat-inactivated fetal bovine serum (FBS), 25 mM HEPES, 2 mM L-glutamine, 0.1 mM nonessential amino acids, 1.0 mM sodium pyruvate, 50 U/mL penicillin, and 50 μg/mL streptomycin at 37°C and 5% CO2. The cell passage number used for the following investigation was between 10 to 20 passages.
Mesangial cells were plated on 48-well plates at a density of 50,000 cells per well overnight in DMEM media containing 2% FBS. Cells were treated by flavonoid compounds at a series of concentrations from 0, 0.05, 0.1, 0.5, 1, 5, 10 to 50 μM or 0, 1, 5, 10, 50, 100 to 200 μM based on the initial activity range with or without 10 ng/mL LPS. Total nitrite production in the treatment media after 48 h was measured with Griess assay. Briefly, 100 μL media was mixed with 25 μL of reagent І (1% sulfanilamide in 5% phosphoric acid) and then 25 μL of reagent II (0.1% N-1-napthylethylenediamine dihydrochloride in water). The optical absorbance of the resulting solution was recorded at 540 nm with a 318C-microplate reader (Sanco Instrument Ltd. Shanghai, China) after 20 min. […] IC50 values were obtained using the dose-response analysis provided by the GraphPad Prism software.
All of the hydroxylated flavones were abbreviated as the positions of hydroxyl groups followed by—HO. The total production of nitrite in the treatment media was measured with Griess assay at 48 h post 10 ng/mL LPS stimulation.

[2] = NO radical quenching study (spontaneous NO from sodium nitroprusside, Griess assay); details: sodium nitroprusside 5 mM in solution, read-out: IC50 of inhibition of spontaneously generated NO radicals from sodium nitroprusside
Description: Spontaneous generation of NO in solutions was achieved by a freshly prepared sodium nitroprusside stock solution in water (50 mM). The level of total nitrile production was determined by the Griess assay with the standard curve of sodium nitrile as described above. For the assay of NO inhibition by flavonoids, sodium nitroprusside solution (10 mM, 25 μL) was mixed with an equal volume of flavonoid solution in 50% DMSO, and the resulting solution was incubated at room temperature for 10 min. Griess reagent І and Griess reagent II (75 μL each) were subsequently added with a gap of 10 min. The optical density at 540 nm was recorded on a 318C-microplate reader after 15 min. The resulting data were processed and analyzed by the GraphPad Prism Software as described above.
Fig 3 Direct NO radical quench study with selected monohydroxylated and polyhydroxylated flavones. Spontaneous generation of NO was achieved by a freshly prepared sodium nitroprusside stock solution (5 mM) in water in Griess assay (top).

cytochrome P450 2C9 = system: cytochrome P450 2C9; parameters: method as in PMID 19515014; details: cited from earlier work
mesangial cells = assay: MTT cell viability assay; assay type: cell-based, rat; details: 48 h
Description: as §1
Cells were plated overnight in growth media (5,000 cells per well) and then treated with each compound for 48 h at increasing concentrations with total DMSO at 0.1%. MTT assay was carried out as reported, and cell viability was plotted with GraphPad Prism program.

[3] = system: phosphorylated p65 protein (NF-κB pathway); assay: Western blot analysis of LPS-activated NF-κB pathway (phosphorylated p65); assay type: cell-based, rat; details: up to 1.0 μM, 12 h pretreatment, LPS 500 ng/mL, 15 min
Description: (§2) Cells were plated in growth media overnight at a density of 1×10^6 cells per well on a 6-well plate. […] For the western blot analysis, cells were washed with PBS and then lysed with 150 μL RIPA buffer containing protease and phosphatase inhibitor cocktail. The supernatants were collected by centrifuge at 14,000 g×10 min at 4°C and stored at -80°C. The total protein content of lysates was determined by enhanced BCA protein assay kit (Beyotime Institute of Biotechnology, Shanghai, China). Electrophoresis was carried out on a NuPAGE Novex Bis-Tris […] gel (Invitrogen, USA) under the reduced condition. After electrophoresis separation, proteins were transferred to membranes and incubated with rabbit monoclonal phospho-NF-κB-p65 antibody (3033S, 1:1000 dilution, Cell Signaling, USA), rabbit polyclonal iNOS antibody (ab3523, 1:500 dilution, Abcam, USA) or mouse monoclonal β-actin antibody (ANT009, 1:1000 dilution AntGene, China). Targeted proteins were then visualized with Qdot 625 conjugate kit (Invitrogen, USA). Gel images were captured with ZF-258 Gel Imaging System (Shanghai Jiapeng Scientific Co. Ltd, China) under illuminating light at 350 nm.
(§3) Fig 5 Western blot analysis of potential molecular targets by 6-methoxyflavone in kidney mesangial cells with LPS as the inflammatory stimuli. […]

[4] = system: inducible NO synthase (iNOS); assay: Western blot analysis of LPS-induced iNOS protein; assay type: cell-based, rat; details: 12 h pretreatment, LPS 500 ng/mL, 24 h
Description: as §2, §3

[5] = Rattus norvegicus, HBZY-1, 48 h, rat mesangial cells, 10 ng/mL LPS, 48 h, Griess assay
[6] = Rattus norvegicus, HBZY-1, 48 h

SMILES	IC50 [1, 5] [µM]	also measured
O=c1cc(-c2ccccc2)oc2ccc(O)cc12 [compound 1, 6-hydroxyflavone]	~2	IC50 ([1]; rat mesangial cells, 10 ng/mL LPS, 48 h, Griess assay): 1.7 µM; IC50 [2]: > 500 µM; mode of inhibition of cytochrome P450 2C9 (cytochrome P450 2C9): noncompetitive inhibition
O=c1cc(-c2cc(O)c(O)c(O)c2)oc2cc(O)cc(O)c12 [3',4',5',5,7-HO, tricetin]	~200	–
O=c1c(O)c(-c2cc(O)c(O)c(O)c2)oc2cc(O)cc(O)c12 [3,3',4',5',5,7-HO, 3,3′,4′,5,5′,7-hexahydroxyflavone]	> 200	IC50 [2]: ~10000 µM
O=c1cc(-c2ccccc2)oc2cc(O)ccc12 [compound 2, 7-hydroxyflavone]	–	IC50 [1, 6]: 46 µM; IC50 [2]: > 500 µM
O=c1c(O)c(-c2ccccc2O)oc2c(O)c(O)ccc12 [2',3,7,8-HO]	~200	–
O=c1c(O)c(-c2ccc(O)cc2O)oc2ccc(O)cc12 [2',3,4',6-HO, 2′,3,4′,6-tetrahydroxyflavone]	~200	–
O=c1c(O)c(-c2ccc(O)c(O)c2)oc2cc(O)cc(O)c12 [3,3',4',5,7-HO, quercetin]	22	–
O=c1c(-c2ccc(O)cc2)coc2cc(O)ccc12 [daidzein, reference compound]	> 200	–
COc1ccc2oc(-c3ccccc3)cc(=O)c2c1 [compound 9, 6-methoxyflavone]	0.192	potency against LPS-induced NO production relative to 6-hydroxyflavone ([1]; more potent than 6-hydroxyflavone (IC50 1.7 μM)): 10 fold; cytotoxicity on mesangial cells (mesangial cells; at 1.0 μM): weak cytotoxicity; inhibition of p65 activation (phosphorylated p65) [3]: no observable inhibition; inhibition of downstream inducible NO synthase (iNOS) upon LPS stimulation ([4]; from 200 nM to 1.0 μM): significant inhibition
O=c1cc(-c2ccccc2O)oc2ccccc12 [compound 3]	> 200	–
CC(=O)Oc1ccc2oc(-c3ccccc3)cc(=O)c2c1 [compound 10, 6-Acetoxyflavone]	0.6	cytotoxicity on mesangial cells (mesangial cells; at 10 μM): weak cytotoxicity
O=c1cc(-c2ccc(O)cc2)oc2ccc(O)cc12 [compound 5, 4′,6-dihydroxyflavone]	~2	–
O=c1cc(-c2ccccc2)oc2c(O)c(O)ccc12 [compound 8]	47	–
O=c1cc(-c2ccc(O)cc2)oc2cccc(O)c12 [compound 6]	14	increase of IC50 against LPS-induced NO production versus flavone 5 ([1]; shift of hydroxyl group from 6-position to 5-position): 7 fold
O=c1c(O)c(-c2ccccc2)oc2ccccc12 [compound 4, 3-Hydroxyflavone]	> 200	IC50 [2]: > 500 µM
O=c1c(O)c(-c2ccc(O)c(O)c2)oc2c(O)c(O)cc(O)c12 [3,3',4',5,7,8-HO, 3,3′,4′,5,7,8-hexahydroxyflavone]	–	IC50 [1, 6]: > 200 µM
O=c1cc(-c2ccc(O)cc2)oc2cc(O)cc(O)c12 [4',5,7-HO, apigenin]	> 200	–
O=c1c(O)c(-c2cccc(O)c2)oc2cc(O)ccc12 [3,3',7-HO]	11	–
O=c1c(O)c(-c2ccc(O)cc2O)oc2cc(O)cc(O)c12 [2',3,4',5,7-HO, morin]	~200	–
Oc1ccc(/C=C/c2cc(O)cc(O)c2)cc1 [resveratrol, reference compound]	11	inhibition of downstream inducible NO synthase (iNOS) upon LPS stimulation ([4]; at 10 μM): weak inhibition
O=c1c(O)c(-c2ccc(O)c(O)c2)oc2cc(O)ccc12 [3,3',4',7-HO, fisetin]	11	–
O=c1cc(-c2ccccc2)oc2ccc(OS(=O)(=O)O)cc12 [compound 11, 6-flavone sulfate sodium salt]	2.1	cytotoxicity on mesangial cells (mesangial cells; at 10 μM): minimal
O=c1c(O)c(-c2ccccc2)oc2cc(O)ccc12 [compound 7]	–	IC50 [1, 6]: 27 µM
O=C1O[C@H]([C@@H](O)CO)C(O)=C1O [ascorbic acid, reference compound]	–	IC50 [2]: 254 µM

From PMC4366162 (PLoS ONE, 2015)
